Data published in patent US20020071842A1, “Soluble CD1 compositions and uses thereof” (priority 2000, published 2002).
Entries after “also recorded” stand apart in the source; their conditions may differ.

What was measured:
Assay in all cases: Plate-bound mCD1d fusion protein hybridoma stimulation assay (IL-2 ELISA)
Format in all cases: cell-based, mouse
14S.10.C hybridoma = details: 14S.10 C diverse TCR hybridoma; plate-bound mCD1d-IgGFc2a fusion protein preincubated with lipid antigen
Method in brief: (§1)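 IL-2 (pg/ml) by sandwich ELISA, regressed on a murine IL-2 standard curve, reports stimulation of hybridomas (1×10^5/well, 16-20 hr, 37° C) on immobilized mCD1d fusion protein pre-pulsed with lipid, 40:1 molar ratio by default, 24-48 hr at 37° C.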

14S.6.A hybridoma = details: 14S.6.A diverse TCR hybridoma; plate-bound mCD1d-IgGFc2a fusion protein preincubated with lipid antigen
Method in brief: as §1

14S.7.N hybridoma = details: 14S.7.N diverse TCR hybridoma; plate-bound mCD1d-IgGFc2a fusion protein preincubated with lipid antigen
Method in brief: as §1

24.7.C hybridoma = details: 24 7.C NKT hybridoma; plate-bound mCD1d-IgGFc2a fusion protein preincubated with lipid antigen
Method in brief: as §1

24.9.E hybridoma = details: for IL-2 secretion: 24.9 E NKT hybridoma, plate-bound mCD1d-IgGFc2a fusion protein preincubated with lipid antigen
Method in brief: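 Protein A plates loaded with 400-600 ng/well mCD1d fusion protein plus lipid antigen (default 40:1 molar ratio), 24-48 hr at 37 °C, washed; hybridomas added at 1×10^5 cells/well for 16-20 hr. Supernatant IL-2 quantified by sandwich ELISA against murine IL-2 standard curve.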

DN32D3 hybridoma = details: DN32D3 NKT hybridoma; plate-bound mCD1d-IgGFc2a fusion protein preincubated with lipid antigen
Method in brief: as §1

KT/12 hybridoma = details: KT/12 NKT hybridoma; plate-bound mCD1d-IgGFc2a fusion protein preincubated with lipid antigen
Method in brief: as §1

KT/22 hybridoma = details: KT/22 NKT hybridoma; plate-bound mCD1d-IgGFc2a fusion protein preincubated with lipid antigen
Method in brief: as §1

KT/23 hybridoma = details: KT/23 NKT hybridoma; plate-bound mCD1d-IgGFc2a fusion protein preincubated with lipid antigen
Method in brief: as §1

KT/7 hybridoma = details: KT/7 NKT hybridoma; plate-bound mCD1d-IgGFc2a fusion protein preincubated with lipid antigen
Method in brief: as §1

VIII24 hybridoma = details: VIII24 diverse TCR hybridoma; plate-bound mCD1d-IgGFc2a fusion protein preincubated with lipid antigen
Method in brief: as §1

Vβ/9 hybridoma = details: Vβ/9 NKT hybridoma; plate-bound mCD1d-IgGFc2a fusion protein preincubated with lipid antigen
Method in brief: as §1

XV19 hybridoma = details: XV19 diverse TCR hybridoma; plate-bound mCD1d-IgGFc2a fusion protein preincubated with lipid antigen
Method in brief: as §1

Q: What does the source list for `CCCCCCCCCCCCCCCCCCCCCCCCCC(=O)N[C@@H](CO[C@H]1O[C@H](CO)[C@H](O)[C@H](O)[C@H]1O)[C@H](O)[C@H](O)CCCCCCCCCCCCCC` [α-GalCer, α-galactosylceramide]?
A: IL-2 secretion (14S.10.C hybridoma): 0 (A “0” indicates a mean of less than 50 pg/ml IL-2 was secreted); IL-2 secretion (14S.6.A hybridoma): 0 (A “0” indicates a mean of less than 50 pg/ml IL-2 was secreted); IL-2 secretion (14S.7.N hybridoma): 0 (A “0” indicates a mean of less than 50 pg/ml IL-2 was secreted); IL-2 secretion (24.7.C hybridoma): +++ (“+++” indicates greater than 1000 pg/ml IL-2); IL-2 response to mCD1d fusion protein pre-treated with purified or synthetic lipid (24.9.E hybridoma; 24.9.E hybridoma): responded strongly; also recorded: secreted IL-2 efficiently; enhancement of antigen recognition after pre-incubation at pH 4.0 compared to pH 7.5 (24.9.E hybridoma; 24.9.E hybridoma, 3:1 molar ratio of antigen to protein, citrate/phosphate buffer): approximately 4 fold; pre-incubation pH giving maximal IL-2 release (24.9.E hybridoma; 24.9.E hybridoma, pH 7.5 to pH 3.0 tested): 4.0; IL-2 when the 19G11 anti-mCD1d mAb was included (24.9.E hybridoma; 24.9.E hybridoma, representative experiment, 19G11 blocking antibody included): 103 pg/mL; mean IL-2 produced (24.9.E hybridoma; 24.9.E hybridoma, representative experiment, mCD1d fusion protein pre-treated with antigen): 2,089 pg/ml; IL-2 secretion (24.9.E hybridoma): +++ (“+++” indicates greater than 1000 pg/ml IL-2); IL-2 secretion (DN32D3 hybridoma): +++ (“+++” indicates greater than 1000 pg/ml IL-2); IL-2 secretion (KT/12 hybridoma): +++ (“+++” indicates greater than 1000 pg/ml IL-2); IL-2 secretion (KT/22 hybridoma): +++ (“+++” indicates greater than 1000 pg/ml IL-2); IL-2 secretion (KT/23 hybridoma): +++ (“+++” indicates greater than 1000 pg/ml IL-2); IL-2 secretion (KT/7 hybridoma): +++ (“+++” indicates greater than 1000 pg/ml IL-2); IL-2 secretion (VIII24 hybridoma): 0 (A “0” indicates a mean of less than 50 pg/ml IL-2 was secreted); IL-2 secretion (Vβ/9 hybridoma): ++ (“++” indicates 250-1000 pg/ml); IL-2 secretion (XV19 hybridoma): 0 (A “0” indicates a mean of less than 50 pg/ml IL-2 was secreted)

Q: For phosphatidylinositol [PI], which IL-2 secretion (14S.10.C hybridoma) is on record?
A: The IL-2 secretion was 0 (A “0” indicates a mean of less than 50 pg/ml IL-2 was secreted).

Q: What about the IL-2 secretion (14S.6.A hybridoma) of the same molecule?
A: Its IL-2 secretion is “+ (“+” indicates 50-250 pg/ml)”.

Q: And the IL-2 secretion (14S.7.N hybridoma)?
A: Its IL-2 secretion is “+ (“+” indicates 50-250 pg/ml)”.

Q: What about the IL-2 secretion (24.7.C hybridoma) of the same molecule?
A: Its IL-2 secretion is 0 (A “0” indicates a mean of less than 50 pg/ml IL-2 was secreted).

Q: What about the “IL-2 response to mCD1d fusion protein pre-treated with purified or synthetic lipid” value (from here on “IL-2 response”) (24.9.E hybridoma; 24.9.E hybridoma) of the same molecule?
A: The value was “only modestly increased IL-2 secretion; also recorded: significantly less IL-2”.

Q: What about the IL-2 secretion (24.9.E hybridoma) of the same molecule?
A: Its IL-2 secretion is “+ (“+” indicates 50-250 pg/ml)”.

Q: What about the IL-2 secretion (DN32D3 hybridoma) of the same molecule?
A: Its IL-2 secretion is 0 (A “0” indicates a mean of less than 50 pg/ml IL-2 was secreted).

Q: What about the IL-2 secretion (KT/12 hybridoma) of the same molecule?
A: Its IL-2 secretion is “+ (“+” indicates 50-250 pg/ml)”.

Q: And the IL-2 secretion (KT/22 hybridoma)?
A: The IL-2 secretion was “+ (“+” indicates 50-250 pg/ml)”.

Q: And the IL-2 secretion (KT/23 hybridoma)?
A: Its IL-2 secretion is “+ (“+” indicates 50-250 pg/ml)”.

Q: And the IL-2 secretion (KT/7 hybridoma)?
A: Its IL-2 secretion is 0 (A “0” indicates a mean of less than 50 pg/ml IL-2 was secreted).

Q: And the IL-2 secretion (VIII24 hybridoma)?
A: The IL-2 secretion was 0 (A “0” indicates a mean of less than 50 pg/ml IL-2 was secreted).

Q: What about the IL-2 secretion (Vβ/9 hybridoma) of the same molecule?
A: Its IL-2 secretion is 0 (A “0” indicates a mean of less than 50 pg/ml IL-2 was secreted).

Q: And the IL-2 secretion (XV19 hybridoma)?
A: Its IL-2 secretion is 0 (A “0” indicates a mean of less than 50 pg/ml IL-2 was secreted).

Q: For unglycosylated ceramide, which IL-2 secretion (14S.10.C hybridoma) is on record?
A: Its IL-2 secretion is 0 (A “0” indicates a mean of less than 50 pg/ml IL-2 was secreted).

Q: And the IL-2 secretion (14S.6.A hybridoma)?
A: The IL-2 secretion was 0 (A “0” indicates a mean of less than 50 pg/ml IL-2 was secreted).

Q: And the IL-2 secretion (14S.7.N hybridoma)?
A: Its IL-2 secretion is 0 (A “0” indicates a mean of less than 50 pg/ml IL-2 was secreted).

Q: What about the IL-2 secretion (24.7.C hybridoma) of the same molecule?
A: Its IL-2 secretion is 0 (A “0” indicates a mean of less than 50 pg/ml IL-2 was secreted).

Q: What about the “IL-2 response” value (24.9.E hybridoma; 24.9.E hybridoma) of the same molecule?
A: The value was “neither the unglycosylated ceramide, nor the closely related β-linked form, β-GalCer, were recognized”.

Q: And the IL-2 secretion (24.9.E hybridoma)?
A: The IL-2 secretion was 0 (A “0” indicates a mean of less than 50 pg/ml IL-2 was secreted).

Q: What about the IL-2 secretion (DN32D3 hybridoma) of the same molecule?
A: The IL-2 secretion was 0 (A “0” indicates a mean of less than 50 pg/ml IL-2 was secreted).

Q: And the IL-2 secretion (KT/12 hybridoma)?
A: The IL-2 secretion was 0 (A “0” indicates a mean of less than 50 pg/ml IL-2 was secreted).

Q: What about the IL-2 secretion (KT/22 hybridoma) of the same molecule?
A: The IL-2 secretion was 0 (A “0” indicates a mean of less than 50 pg/ml IL-2 was secreted).

Q: What about the IL-2 secretion (KT/23 hybridoma) of the same molecule?
A: The IL-2 secretion was 0 (A “0” indicates a mean of less than 50 pg/ml IL-2 was secreted).

Q: And the IL-2 secretion (KT/7 hybridoma)?
A: Its IL-2 secretion is 0 (A “0” indicates a mean of less than 50 pg/ml IL-2 was secreted).

Q: And the IL-2 secretion (VIII24 hybridoma)?
A: The IL-2 secretion was 0 (A “0” indicates a mean of less than 50 pg/ml IL-2 was secreted).

Q: And the IL-2 secretion (Vβ/9 hybridoma)?
A: Its IL-2 secretion is 0 (A “0” indicates a mean of less than 50 pg/ml IL-2 was secreted).

Q: What about the IL-2 secretion (XV19 hybridoma) of the same molecule?
A: Its IL-2 secretion is 0 (A “0” indicates a mean of less than 50 pg/ml IL-2 was secreted).

Q: For β-galactosylceramide [β-GalCer], which IL-2 secretion (14S.6.A hybridoma) is on record?
A: Its IL-2 secretion is 0 (A “0” indicates a mean of less than 50 pg/ml IL-2 was secreted).

Q: And the IL-2 secretion (14S.7.N hybridoma)?
A: Its IL-2 secretion is 0 (A “0” indicates a mean of less than 50 pg/ml IL-2 was secreted).

Q: What about the IL-2 secretion (24.7.C hybridoma) of the same molecule?
A: Its IL-2 secretion is 0 (A “0” indicates a mean of less than 50 pg/ml IL-2 was secreted).

Q: What about the “IL-2 response” value (24.9.E hybridoma; 24.9.E hybridoma) of the same molecule?
A: Its value is “neither the unglycosylated ceramide, nor the closely related β-linked form, β-GalCer, were recognized”.

Q: What about the IL-2 secretion (24.9.E hybridoma) of the same molecule?
A: Its IL-2 secretion is 0 (A “0” indicates a mean of less than 50 pg/ml IL-2 was secreted).

Q: What about the IL-2 secretion (DN32D3 hybridoma) of the same molecule?
A: The IL-2 secretion was 0 (A “0” indicates a mean of less than 50 pg/ml IL-2 was secreted).

Q: And the IL-2 secretion (KT/12 hybridoma)?
A: Its IL-2 secretion is 0 (A “0” indicates a mean of less than 50 pg/ml IL-2 was secreted).

Q: And the IL-2 secretion (KT/22 hybridoma)?
A: The IL-2 secretion was 0 (A “0” indicates a mean of less than 50 pg/ml IL-2 was secreted).

Q: And the IL-2 secretion (KT/23 hybridoma)?
A: The IL-2 secretion was 0 (A “0” indicates a mean of less than 50 pg/ml IL-2 was secreted).

Q: And the IL-2 secretion (KT/7 hybridoma)?
A: The IL-2 secretion was 0 (A “0” indicates a mean of less than 50 pg/ml IL-2 was secreted).

Q: And the IL-2 secretion (VIII24 hybridoma)?
A: The IL-2 secretion was 0 (A “0” indicates a mean of less than 50 pg/ml IL-2 was secreted).

Q: And the IL-2 secretion (Vβ/9 hybridoma)?
A: The IL-2 secretion was 0 (A “0” indicates a mean of less than 50 pg/ml IL-2 was secreted).

Q: And the IL-2 secretion (XV19 hybridoma)?
A: The IL-2 secretion was 0 (A “0” indicates a mean of less than 50 pg/ml IL-2 was secreted).
